Test results: paper PMC6774072, “Azologization and repurposing of a hetero-stilbene-based kinase inhibitor: towards the design of photoswitchable sirtuin inhibitors” (Beilstein Journal of Organic Chemistry, 2019)
Like-named read-outs stand apart in the source and are kept apart here.

Experiments:
Sirt1 = target: T1, Sirt1 (Homo sapiens, UniProt Q96EB6); assay: fluorescence-based deacetylase assay with Z-Lys(acetyl)-AMC (ZMAL) substrate; format: biochemical; settings: @ 100 µM
T1 construct: Expression and purification of Sirt1_133-747; made in house
T1 sequence (Q96EB6 133-747): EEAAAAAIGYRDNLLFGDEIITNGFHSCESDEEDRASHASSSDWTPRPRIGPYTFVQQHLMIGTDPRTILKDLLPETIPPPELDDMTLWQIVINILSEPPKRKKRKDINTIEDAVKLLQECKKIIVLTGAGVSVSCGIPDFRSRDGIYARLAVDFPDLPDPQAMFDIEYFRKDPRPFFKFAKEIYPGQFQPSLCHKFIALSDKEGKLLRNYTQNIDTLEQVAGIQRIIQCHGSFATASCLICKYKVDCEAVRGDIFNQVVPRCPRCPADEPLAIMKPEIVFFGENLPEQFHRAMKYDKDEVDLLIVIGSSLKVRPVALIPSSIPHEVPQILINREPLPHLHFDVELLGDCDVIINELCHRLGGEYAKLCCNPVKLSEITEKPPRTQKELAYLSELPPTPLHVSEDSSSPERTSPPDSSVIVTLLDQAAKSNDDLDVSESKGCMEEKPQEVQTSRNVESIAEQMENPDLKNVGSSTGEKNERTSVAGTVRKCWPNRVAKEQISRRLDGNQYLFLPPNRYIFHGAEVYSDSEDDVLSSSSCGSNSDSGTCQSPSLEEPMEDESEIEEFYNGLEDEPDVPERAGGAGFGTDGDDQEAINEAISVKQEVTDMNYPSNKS
Experimental: (§1) The influence on deacetylase activity of three human sirtuin isoforms (Sirt1–3) was determined in a fluorescence-based assay, using Z-Lys(acetyl)-AMC (ZMAL) as a substrate. Compared to the lead structure 2a, all compounds except 2e–h show increased inhibitory activity against Sirt2 (Table 1). […] Moreover, a slight increase in selectivity for Sirt2 and Sirt3 over Sirt1 could be observed for 2c, 4a and 4b. […] Though not photoswitchable, compounds 4a and 4b were synthesized to test the influence of a rigid conformation around the C=C double bond on sirtuin inhibition. […] A recently developed fluorescence polarization (FP)-based assay enables mapping of ligand binding to this specific binding site. For 2a an interaction with the selectivity pocket was already implied in the same work. Additionally performed docking studies proposed a binding mode in which 2a mimics the nicotinamide residue of NAD^+, whereas aromatic amino acid residues of the selectivity pocket stabilize the dimethylphenol ring. As photoisomerization in stilbenes and azo dyes is accompanied by a perpendicular twist of the phenyl ring towards the former molecular plane, we assumed that this conformational change should provoke a differential binding situation at least for the dimethylphenol residue in 2a. Unfortunately, binding of 2b and c could not be localised in the vicinity of the selectivity pocket of Sirt2, so that the binding pose remains unclear.
(§2) The photoswitchable diazeno compound 11 was subjected to biological evaluation to test the effect of photoisomerization on the inhibitory activity. The enzyme assay mixture containing 11 was exposed to 5 minutes of 365 nm radiation and compared with the results of a non-irradiated measurement. […] Unfortunately, 365 nm radiation turned out to have only minor effects on the IC50 values of 11 (Table 3).
(§3) Cloning, expression and purification of recombinant proteins: Expression and purification of Sirt1_133-747, Sirt2_56−356, and Sirt3_118−395 was carried out as described previously. Identity and purity were verified by SDS-PAGE [65]. Protein concentration was determined by the Bradford assay.
(§4) Bioassay: The inhibitory effect of compounds 2a–h, 4a/b, 8a and 11 on Sirt1–3 was detected via a previously reported fluorescence based assay. The synthetic substrate Z-Lys(acetyl)-AMC (ZMAL) is deacetylated by sirtuins, followed by tryptic digestion and thereby release of […], leading to a fluorescent readout. Inhibition was determined by comparing percentage substrate conversion to a DMSO control after subtraction of the blank fluorescence signal. All compounds were tested at 100 µM, 50 µM and 10 µM, respectively. […] IC50 values were calculated with OriginPro 9.0 G using a non-linear regression to fit the dose response curve. An enzyme-free blank control and a 100% conversion control using AMC instead of ZMAL were measured as well. Inhibition measurements were performed in biological duplicates for all compounds.

Sirt2 = target: T2, Sirt2 (Homo sapiens, UniProt Q8IXJ6); assay: as above; format: biochemical; settings: read-out: Sirt2 inhibition IC50
T2 construct: Sirt2_56−356; made in house
T2 sequence (Q8IXJ6 56-356): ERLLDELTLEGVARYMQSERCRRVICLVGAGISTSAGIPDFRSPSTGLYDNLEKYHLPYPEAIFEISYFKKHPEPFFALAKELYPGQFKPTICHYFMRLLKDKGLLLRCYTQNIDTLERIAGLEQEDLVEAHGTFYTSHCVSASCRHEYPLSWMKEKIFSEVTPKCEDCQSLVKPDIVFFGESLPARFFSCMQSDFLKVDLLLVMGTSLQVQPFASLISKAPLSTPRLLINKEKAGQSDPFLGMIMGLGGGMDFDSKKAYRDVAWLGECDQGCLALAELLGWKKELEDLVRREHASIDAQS
Experimental: as §1, §2, §3, §4

Sirt3 = target: T3, Sirt3 (Homo sapiens, UniProt Q9NTG7); assay: as above; format: biochemical; settings: read-out: Sirt3 inhibition IC50
T3 construct: Sirt3_118−395; made in house
T3 sequence (Q9NTG7 118-395): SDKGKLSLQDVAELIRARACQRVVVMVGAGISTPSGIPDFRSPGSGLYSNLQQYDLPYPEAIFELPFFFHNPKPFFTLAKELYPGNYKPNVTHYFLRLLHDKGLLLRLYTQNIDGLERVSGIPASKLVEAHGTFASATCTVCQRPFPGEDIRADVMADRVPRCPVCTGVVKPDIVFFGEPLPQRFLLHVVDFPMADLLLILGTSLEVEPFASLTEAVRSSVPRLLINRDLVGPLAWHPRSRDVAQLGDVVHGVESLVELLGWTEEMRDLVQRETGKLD
Experimental: as §1, §2, §3, §4

[1] = photostationary state (PSS) after 5 minutes of 365 nm irradiation
[2] = thermal equilibrium (∆), non-irradiated

inhibition at 100 µM (Sirt1; [1]): 19% | inhibition at 100 µM (Sirt1; [2]): 35% | IC50 (Sirt2; [1]): 24.1 ± 1.69 µM | IC50 (Sirt2; [2]): 18.9 ± 1.38 µM | IC50 (Sirt3; [1]): 29.9 ± 2.11 µM | IC50 (Sirt3; [2]): 27.5 ± 3.42 µM | melting point: 212.3 °C
Structure (SMILES): NC(=O)c1cncc(N=Nc2ccc(F)cc2)c1 [Compound 11, 5-[(4-Fluorophenyl)diazenyl]nicotinamide]
